Reference: patent US20230076733A1, “Combination Therapy” (AGENCY FOR SCIENCE, TECHNOLOGY AND RESEARCH, priority 2020, published 2023)

Columns and labels:
Assay type in all cases: cell-based
Settings in all cases: 100 nM for 48 hr versus DMSO
PaTu899S cells = assay: expression of DNA repair genes by qRT-PCR, PaTu899S cells
Description: (§1) Tumors were homogenised in RLT buffer using a polytron homogenizer. Total RNA was isolated using RNAeasy kit (Qiagen, Germany) according to manufacturer's protocol. For qPT-PCR, RNA was reverse transcribed with iScript reverse transcriptase (BioRAD, Hercules, Calif., USA). Real time quantitative PCR (qPCR) was performed using SsoFast EvaGreen assay Supermix from BioRad (Hercules, Calif., USA). EPN1 and ACTB were used as housekeeping genes.
(§2) Inhibition of Wnt signalling reduces expression of DNA repair genes: HPAF-II, AsPC-1 or PaTu899S cells were treated with either DMSO or 100 nM compound of Formula (I) for 48 hr. The expression of the indicated genes was measured by qRT-PCR. FIGS. 14-16 illustrates the results.

HPAF-II cells = assay: expression of DNA repair genes by qRT-PCR, HPAF-II cells
Description: as §1, §2

AsPC-1 cells = assay: expression of DNA repair genes by qRT-PCR, AsPC-1 cells
Description: as §1, §2

Cn1c(=O)c2c(ncn2CC(=O)Nc2ccc(-c3ccccc3)nn2)n(C)c1=O [Ex 1, 2-(1,3-dimethyl-2,6-dioxo-2,3-dihydro-1H-purin-7 (6H)-yl)-N-(6-phenylpyridazin-3-yl)acetamide]
expression of DNA repair genes BRCA1, BRCA2, FANCD2, FANCG, RAD51 and XRCC3 (PaTu899S cells): inhibited the expression of DNA repair genes
expression of DNA repair genes BRCA1, BRCA2, FANCD2, FANCG, RAD51 and XRCC3 (HPAF-II cells): inhibited the expression of DNA repair genes
expression of DNA repair genes BRCA1, BRCA2, FANCD2, FANCG, RAD51 and XRCC3 (AsPC-1 cells): inhibited the expression of DNA repair genes
